Measurements published in US11053235B2, “Substituted 1,4-dihydropyrimidines for the treatment of HBV infection or HBV-induced diseases” (Janssen Sciences Ireland Unlimited Company, priority 2018, dated 2021).
Read-outs that look alike come from different tables or passages of the source.

Assays:
[1] = Cytotoxicity determination in HepG2.2.15 cells (CCK-8); format: cell-based; conditions: human, 6 days treatment, CCK-8, highest concentration 100 uM
Method in brief: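 HepG2.2.15 cells seeded at 5,000 cells/well in 2% FBS medium and exposed to compounds for 6 days (medium refreshed once), 8 three-fold dilutions from 100 uM. Viability read by CCK-8 after 2.5 h at 37 °C, absorbance 450 nm with 630 nm reference; CC50 calculated.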

[2] = system: HBV; experiment: Anti-viral assay in HepG2.2.15 cells: HBV inhibitory activity (HBV DNA in culture medium by q-PCR); format: cell-based; conditions: Hepatitis B virus, HepG2.2.15, 144 h
Method in brief: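 HepG2.2.15 cells seeded at 40,000/well in 2% FBS medium, dosed next day for 6 days (medium refreshed once midway); 8-point 3-fold dilutions from 10 uM top. HBV DNA in culture medium extracted and quantified by q-PCR; EC50 calculated from dose-response.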

[3] = HepG2.2.15 cells, 6 days treatment, HBV DNA in culture medium by q-PCR, highest concentration 10 uM, read-out: EC50

Structure (SMILES): CCOC(=O)C1=C(C2CCN(c3cnc(C(=O)O)cn3)CC2)NC(c2nccs2)=NC1c1ccc(F)c(F)c1Cl (single isomer, unassigned) [II-51-B, 5-(4-(6-(2-Chloro-3,4-difluorophenyl)-5-(ethoxycarbonyl)-2-(thiazol-2-yl)-3,6-dihydropyrimidin-4-yl)piperidin-1-yl)pyrazine-2-carboxylic Acid]
- CC50 at 6 days [1]: 670 nM
- EC50 [2, 3]: < 4.6 nM

Structure (SMILES): CCOC(=O)C1=C(C2CCN(c3cc(C(=O)O)nc(OC)n3)CC2)NC(c2nccs2)=NC1c1ccc(F)c(F)c1Cl (single isomer, unassigned) [II-52-B, 6-(4-(6-(2-Chloro-3,4-difluorophenyl)-5-(ethoxycarbonyl)-2-(thiazol-2-yl)-3,6-dihydropyrimidin-4-yl)piperidin-1-yl)-2-methoxypyrimidine-4-carboxylic Acid]
- CC50 at 6 days [1]: 3700 nM
- EC50 [2, 3]: 51 nM

Structure (SMILES): CCOC(=O)C1=C(C2CCN(c3cc(C(=O)O)nc(C)n3)CC2)NC(c2nccs2)=NC1c1ccc(F)c(F)c1Cl (single isomer, unassigned) [II-53-B, 6-(4-(6-(2-Chloro-3,4-difluorophenyl)-5-(ethoxycarbonyl)-2-(thiazol-2-yl)-3,6-dihydropyrimidin-4-yl)piperidin-1-yl)-2-methylpyrimidine-4-carboxylic Acid]
- CC50 at 6 days [1]: 9050 nM
- EC50 [2, 3]: 98 nM

Structure (SMILES): CCOC(=O)C1=C(C2CCN(c3cc(C(=O)O)ncn3)CC2)NC(c2nccs2)=NC1c1ccc(F)c(F)c1Cl (single isomer, unassigned) [II-54-B, 6-(4-(6-(2-Chloro-3,4-difluorophenyl)-5-(ethoxycarbonyl)-2-(thiazol-2-yl)-3,6-dihydropyrimidin-4-yl)piperidin-1-yl)pyrimidine-4-carboxylic Acid]
- CC50 at 6 days [1]: 10300 nM
- EC50 [2, 3]: 19 nM

Structure (SMILES): CCOC(=O)C1=C(C2CCN(c3ncc([C@]4(O)C[C@@H](C(=O)O)C4)cn3)CC2)NC(c2nccs2)=NC1c1ccc(F)c(F)c1Cl (single isomer, unassigned) [II-55-B, (trans)-3-(2-(4-(6-(2-Chloro-3,4-difluorophenyl)-5-(ethoxycarbonyl)-2-(thiazol-2-yl)-3,6-dihydropyrimidin-4-yl)piperidin-1-yl)pyrimidin-5-yl)-3-hydroxycyclobutanecarboxylic Acid]
- CC50 at 6 days [1]: 7960 nM
- EC50 [2, 3]: < 4.6 nM

Structure (SMILES): CCOC(=O)C1=C(C2CCN(c3nc(C)c(C)c(C(=O)O)n3)CC2)NC(c2nccs2)=NC1c1ccc(F)c(F)c1Cl (single isomer, unassigned) [II-56-B, 2-(4-(6-(2-Chloro-3,4-difluorophenyl)-5-(ethoxycarbonyl)-2-(thiazol-2-yl)-3,6-dihydropyrimidin-4-yl)piperidin-1-yl)-5,6-dimethylpyrimidine-4-carboxylic Acid]
- CC50 at 6 days [1]: 5540 nM
- EC50 [2, 3]: 22 nM

Structure (SMILES): CCOC(=O)C1=C(C2CCN(c3nc(OC)cc(C(=O)O)n3)CC2)NC(c2nccs2)=NC1c1ccc(F)c(F)c1Cl (single isomer, unassigned) [II-57-B, 2-(4-(6-(2-chloro-3,4-difluorophenyl)-5-(ethoxycarbonyl)-2-(thiazol-2-yl)-3,6-dihydropyrimidin-4-yl)piperidin-1-yl)-6-methoxypyrimidine-4-carboxylic Acid]
- CC50 at 6 days [1]: 4880 nM
- EC50 [2, 3]: 100 nM

Structure (SMILES): CCOC(=O)C1=C(C2CCN(c3nc(C)cc(C(=O)O)n3)CC2)NC(c2nccs2)=NC1c1ccc(F)c(F)c1Cl (single isomer, unassigned) [II-58-B, 2-(4-(6-(2-Chloro-3,4-difluorophenyl)-5-(ethoxycarbonyl)-2-(thiazol-2-yl)-3,6-dihydropyrimidin-4-yl)piperidin-1-yl)-6-methylpyrimidine-4-carboxylic Acid]
- CC50 at 6 days [1]: 4800 nM
- EC50 [2, 3]: 37 nM

Structure (SMILES): CCOC(=O)C1=C(C2CCN(c3ncc(C(C)C)c(C(=O)O)n3)CC2)NC(c2nccs2)=NC1c1ccc(F)c(F)c1Cl (single isomer, unassigned) [II-59-B, 2-(4-(6-(2-Chloro-3,4-difluorophenyl)-5-(ethoxycarbonyl)-2-(thiazol-2-yl)-3,6-dihydropyrimidin-4-yl)piperidin-1-yl)-5-isopropylpyrimidine-4-carboxylic Acid]
- CC50 at 6 days [1]: 8650 nM
- EC50 [2, 3]: 13 nM

Structure (SMILES): CCOC(=O)C1=C(C2CCN(c3ncc(CC)c(C(=O)O)n3)CC2)NC(c2nccs2)=NC1c1ccc(F)c(F)c1Cl (single isomer, unassigned) [II-60-B, 2-(4-(6-(2-Chloro-3,4-difluorophenyl)-5-(ethoxycarbonyl)-2-(thiazol-2-yl)-3,6-dihydropyrimidin-4-yl)piperidin-1-yl)-5-ethylpyrimidine-4-carboxylic Acid]
- CC50 at 6 days [1]: 8920 nM
- EC50 [2, 3]: 5.9 nM

Structure (SMILES): CCOC(=O)C1=C(C2CCN(c3ncc(Cl)c(C(=O)O)n3)CC2)NC(c2nccs2)=NC1c1ccc(F)c(F)c1Cl (single isomer, unassigned) [II-61-B, 5-Chloro-2-(4-(6-(2-chloro-3,4-difluorophenyl)-5-(ethoxycarbonyl)-2-(thiazol-2-yl)-3,6-dihydropyrimidin-4-yl)piperidin-1-yl)pyrimidine-4-carboxylic Acid]
- CC50 at 6 days [1]: 6680 nM
- EC50 [2, 3]: 9.1 nM

Structure (SMILES): CCOC(=O)C1=C(C2CCN(c3ncc(F)c(C(=O)O)n3)CC2)NC(c2nccs2)=NC1c1ccc(F)c(F)c1Cl (single isomer, unassigned) [II-62-B, 2-(4-(6-(2-Chloro-3,4-difluorophenyl)-5-(ethoxycarbonyl)-2-(thiazol-2-yl)-3,6-dihydropyrimidin-4-yl)piperidin-1-yl)-5-fluoropyrimidine-4-carboxylic Acid]
- CC50 at 6 days [1]: 6690 nM
- EC50 [2, 3]: 16 nM

Structure (SMILES): CCOC(=O)C1=C(C2CCN(c3ncc(C)c(C(=O)O)n3)CC2)NC(c2nccs2)=NC1c1ccc(F)c(F)c1Cl (single isomer, unassigned) [II-63-B, 2-(4-(6-(2-Chloro-3,4-difluorophenyl)-5-(ethoxycarbonyl)-2-(thiazol-2-yl)-3,6-dihydropyrimidin-4-yl)piperidin-1-yl)-5-methylpyrimidine-4-carboxylic Acid]
- CC50 at 6 days [1]: 8280 nM
- EC50 [2, 3]: 21 nM

Structure (SMILES): CCOC(=O)C1=C(C2CCN(c3nc(C)c(C(=O)O)o3)CC2)NC(c2nccs2)=NC1c1ccc(F)c(F)c1Cl (single isomer, unassigned) [II-64-B, Lithium 2-(4-(6-(2-chloro-3,4-difluorophenyl)-5-(ethoxycarbonyl)-2-(thiazol-2-yl)-3,6-dihydropyrimidin-4-yl)piperidin-1-yl)-4-methyloxazole-5-carboxylate]
- CC50 at 6 days [1]: 6840 nM
- EC50 [2]: 75 nM

Structure (SMILES): CCOC(=O)C1=C(C2CCN(c3nccc(C(=O)O)n3)CC2)NC(c2nccs2)=NC1c1ccc(F)c(F)c1Cl (single isomer, unassigned) [II-65-B, 2-(4-(6-(2-chloro-3,4-difluorophenyl)-5-(ethoxycarbonyl)-2-(thiazol-2-yl)-3,6-dihydropyrimidin-4-yl)piperidin-1-yl)pyrimidine-4-carboxylic Acid]
- CC50 at 6 days [1]: 6640 nM
- EC50 [2, 3]: 4.6 nM

Structure (SMILES): CCOC(=O)C1=C(C2CCN(c3ncc(CCC(=O)O)cn3)CC2)NC(c2nccs2)=NC1c1ccc(F)c(F)c1Cl (single isomer, unassigned) [II-66-B, 3-(2-(4-(6-(2-Chloro-3,4-difluorophenyl)-5-(ethoxycarbonyl)-2-(thiazol-2-yl)-3,6-dihydropyrimidin-4-yl)piperidin-1-yl)pyrimidin-5-yl)propanoic Acid]
- CC50 at 6 days [1]: 10900 nM
- EC50 [2, 3]: 7.2 nM

Structure (SMILES): CCOC(=O)C1=C(C2CCN(c3ncc(C(C)(C)C(=O)O)cn3)CC2)NC(c2nccs2)=NC1c1ccc(F)c(F)c1Cl (single isomer, unassigned) [II-67-B, 2-(2-(4-(6-(2-Chloro-3,4-difluorophenyl)-5-(ethoxycarbonyl)-2-(thiazol-2-yl)-3,6-dihydropyrimidin-4-yl)piperidin-1-yl)pyrimidin-5-yl)-2-methylpropanoic Acid]
- CC50 at 6 days [1]: 2020 nM
- EC50 [2, 3]: 12 nM

Structure (SMILES): CCOC(=O)C1=C(C2CCN(c3nc(C(=O)O)c(C)o3)CC2)NC(c2nccs2)=NC1c1ccc(F)c(F)c1Cl (single isomer, unassigned) [II-68-B, 2-(4-(6-(2-Chloro-3,4-difluorophenyl)-5-(ethoxycarbonyl)-2-(thiazol-2-yl)-3,6-dihydropyrimidin-4-yl)piperidin-1-yl)5-methyloxazole-4-carboxylic Acid]
- CC50 at 6 days [1]: 8320 nM
- EC50 [2, 3]: 16 nM

Structure (SMILES): CCOC(=O)C1=C(C2CCN(c3ncc(CC(=O)O)cn3)CC2)NC(c2nccs2)=NC1c1ccc(F)c(F)c1Cl (single isomer, unassigned) [II-69-B, 2-(2-(4-(6-(2-Chloro-3,4-difluorophenyl)-5-(ethoxycarbonyl)-2-(thiazol-2-yl)-3,6-dihydropyrimidin-4-yl)piperidin-1-yl)pyrimidin-5-yl)acetic Acid]
- CC50 at 6 days [1]: 4080 nM
- EC50 [2, 3]: 3.1 nM

Structure (SMILES): CCOC(=O)C1=C(C2CCN(c3nc(C(=O)O)co3)CC2)NC(c2nccs2)=NC1c1ccc(F)c(F)c1Cl (single isomer, unassigned) [II-70-B, 2-(4-(6-(2-Chloro-3,4-difluorophenyl)-5-(ethoxycarbonyl)-2-(thiazol-2-yl)-3,6-dihydropyrimidin-4-yl)piperidin-1-yl)oxazole-4-carboxylic Acid]
- CC50 at 6 days [1]: 11800 nM
- EC50 [2, 3]: 10 nM

Structure (SMILES): CCOC(=O)C1=C(C2CCN(c3nc(C)c(C(=O)O)c(C)n3)CC2)NC(c2nccs2)=NC1c1ccc(F)c(F)c1Cl (single isomer, unassigned) [II-71-B, 2-(4-(6-(2-chloro-3,4-difluorophenyl)-5-(ethoxycarbonyl)-2-(thiazol-2-yl)-3,6-dihydropyrimidin-4-yl)piperidin-1-yl)-4,6-dimethylpyrimidine-5-carboxylic Acid]
- CC50 at 6 days [1]: 6330 nM
- EC50 [2, 3]: 20 nM
